Test results taken from US20090291964A1, “Potentiators of Antibacterial Activity” (priority 2003, published 2009).

Assays:
Type in all cases: cell-based
S. aureus ATCC 29213 = test: Ethidium bromide efflux fluorescence assay; settings: EPIs at 4 times MEC for EtBr, A-106 at 100 μg/ml; versus control cells without EPI
Procedure: S. aureus cells were loaded with EtBr as described in Example 1. EPIs were used at 4XMEC (minimal effective concentration) (25 μg/ml reserpine; 100 μg/ml VX-710 (compound A-106 in Table A-2); 6.25 μg/ml VX-853 (compound C-9 in Table C-I), and no EPI control—as labeled). Fluorescence was continuously monitored over time at room temperature and results are an average of at least 3 replicates.
Ethidium bromide (EtBr) efflux assays with S. aureus were performed using the method described by Markham et al. (Markham, et al., “Multiple Novel Inhibitors of the NorA Multidrug Transporter of Staphylococcus aureus”, Antimicrob. Agents Chemother. 43:2404-2408 (1999)). […] Ethidium bromide efflux was determined by continuously monitoring fluorescence at an excitation wavelength of 530 nm and an emission wavelength of 600 nm in a black 96-well polystyrene plate with clear, flat bottom (Costar #3904, Cambridge, Mass.) using a SpectraMax Gemini spectrofluorimeter (Molecular Devices, Sunnydale, Calif.). […]
Markham et al., “Multiple Novel Inhibitors of the NorA Multidrug Transporter of Staphylococcus aureus”, Antimicrob. […] Since ethidium only fluoresces when it is bound to nucleic acid inside of cells, a decrease in fluorescence over time is due to active efflux. […]

[1] = test system: E. faecalis clinical isolates; test: MIC90 studies: fluoroquinolone susceptibility of clinical isolate panel with EPI; settings: EPI at 50 μg/ml
Procedure: (§1) Susceptibility studies with large panels of resistant clinical isolates were performed at Focus Technologies, Herndon, Va. according to NCCLS protocols (National Committee for Clinical Laboratory Standards, supra).
(§2) To be useful in combination therapy, an EPI needs to substantially reduce the MIC of an antibiotic to within the range of clinical susceptibility. Because many different resistance mechanisms are often present in clinical isolates, including the likelihood of multiple target-based mutations in addition to efflux mutations, the barrier to antibiotic efficacy is much greater. […] Oxacillin and vancomycin MICs were also determined to identify which isolates were methicillin-resistant (S. aureus) and vancomycin-resistant (E. faecalis).

[2] = test system: S. aureus clinical isolates; test: as above; settings: EPI at 50 μg/ml
Procedure: as §1, §2

[3] = E. faecalis clinical isolate 10
[4] = E. faecalis clinical isolate 11
[5] = E. faecalis clinical isolate 12
[6] = E. faecalis clinical isolate 13
[7] = E. faecalis clinical isolate 14
[8] = E. faecalis clinical isolate 15
[9] = E. faecalis clinical isolate 16
[10] = E. faecalis clinical isolate 17
[11] = E. faecalis clinical isolate 18
[12] = E. faecalis clinical isolate 19
[13] = E. faecalis clinical isolate 20
[14] = E. faecalis clinical isolate 21
[15] = E. faecalis clinical isolate 22
[16] = E. faecalis clinical isolate 23
[17] = E. faecalis clinical isolate 24
[18] = E. faecalis clinical isolate 25
[19] = E. faecalis clinical isolate 26

COc1cc(C(=O)C(=O)N(C)[C@@H](Cc2ccc(Cl)cc2)C(=O)N(Cc2ccccc2)C(CCc2ccncc2)CCc2ccncc2)cc(OC)c1OC [C-9, (S)—N-Benzyl-2-(methyl-(2-oxo-2-(3,4,5-trimethoxyphenyl)acetyl)amino)-3-(4-chloro-phenyl)-N-(3-pyridin-4-yl-1-(2-pyridin-4-yl-ethyl)propyl)propionamide]
loss of EtBr fluorescence over time (FIG. 1) (S. aureus ATCC 29213): much more gradual loss of fluorescence
Ciprofloxacin MIC with EPI ([1]; E. faecalis clinical isolate 1): 1 µg/mL
Norfloxacin MIC with EPI ([1]; E. faecalis clinical isolate 1): 2 µg/mL
Ciprofloxacin MIC with EPI ([1]; E. faecalis clinical isolate 2): 1 µg/mL
Norfloxacin MIC with EPI ([1]; E. faecalis clinical isolate 2): 2 µg/mL
Ciprofloxacin MIC with EPI ([1]; E. faecalis clinical isolate 3): 64 µg/mL
Norfloxacin MIC with EPI ([1]; E. faecalis clinical isolate 3): 128 µg/mL
Ciprofloxacin MIC with EPI ([1]; E. faecalis clinical isolate 4): 64 µg/mL
Norfloxacin MIC with EPI ([1]; E. faecalis clinical isolate 4): 128 µg/mL
Ciprofloxacin MIC with EPI ([1]; E. faecalis clinical isolate 5): 64 µg/mL
Norfloxacin MIC with EPI ([1]; E. faecalis clinical isolate 5): 64 µg/mL
Ciprofloxacin MIC with EPI ([1]; E. faecalis clinical isolate 6): 1 µg/mL
Norfloxacin MIC with EPI ([1]; E. faecalis clinical isolate 6): 8 µg/mL
Ciprofloxacin MIC with EPI ([1]; E. faecalis clinical isolate 7): 1 µg/mL
Norfloxacin MIC with EPI ([1]; E. faecalis clinical isolate 7): 2 µg/mL
Ciprofloxacin MIC with EPI ([1]; E. faecalis clinical isolate 8): 32 µg/mL
Norfloxacin MIC with EPI ([1]; E. faecalis clinical isolate 8): 128 µg/mL
Ciprofloxacin MIC with EPI ([1]; E. faecalis clinical isolate 9): 1 µg/mL
Norfloxacin MIC with EPI ([1]; E. faecalis clinical isolate 9): 2 µg/mL
Ciprofloxacin MIC with EPI [1, 3]: 64 µg/mL
Norfloxacin MIC with EPI [1, 3]: 64 µg/mL
Ciprofloxacin MIC with EPI [1, 4]: 32 µg/mL
Norfloxacin MIC with EPI [1, 4]: 64 µg/mL
Ciprofloxacin MIC with EPI [1, 5]: 1 µg/mL
Norfloxacin MIC with EPI [1, 5]: 2 µg/mL
Ciprofloxacin MIC with EPI [1, 6]: 0.5 µg/mL
Norfloxacin MIC with EPI [1, 6]: 2 µg/mL
Ciprofloxacin MIC with EPI [1, 7]: 0.5 µg/mL
Norfloxacin MIC with EPI [1, 7]: 2 µg/mL
Ciprofloxacin MIC with EPI [1, 8]: 2 µg/mL
Norfloxacin MIC with EPI [1, 8]: 4 µg/mL
Ciprofloxacin MIC with EPI [1, 9]: 1 µg/mL
Norfloxacin MIC with EPI [1, 9]: 4 µg/mL
Ciprofloxacin MIC with EPI [1, 10]: 1 µg/mL
Norfloxacin MIC with EPI [1, 10]: 2 µg/mL
Ciprofloxacin MIC with EPI [1, 11]: 64 µg/mL
Norfloxacin MIC with EPI [1, 11]: 128 µg/mL
Ciprofloxacin MIC with EPI [1, 12]: 1 µg/mL
Norfloxacin MIC with EPI [1, 12]: 4 µg/mL
Ciprofloxacin MIC with EPI [1, 13]: 1 µg/mL
Norfloxacin MIC with EPI [1, 13]: 2 µg/mL
Ciprofloxacin MIC with EPI [1, 14]: 1 µg/mL
Norfloxacin MIC with EPI [1, 14]: 4 µg/mL
Ciprofloxacin MIC with EPI [1, 15]: 64 µg/mL
Norfloxacin MIC with EPI [1, 15]: 128 µg/mL
Ciprofloxacin MIC with EPI [1, 16]: 32 µg/mL
Norfloxacin MIC with EPI [1, 16]: 64 µg/mL
Ciprofloxacin MIC with EPI [1, 17]: 32 µg/mL
Norfloxacin MIC with EPI [1, 17]: 64 µg/mL
Ciprofloxacin MIC with EPI [1, 18]: 64 µg/mL
Norfloxacin MIC with EPI [1, 18]: 128 µg/mL
Ciprofloxacin MIC with EPI [1, 19]: 64 µg/mL
Norfloxacin MIC with EPI [1, 19]: 128 µg/mL
trend in the reduction of MICs for ciprofloxacin and norfloxacin ([1]; E. faecalis isolates, Table 5B): less apparent
decrease in MIC of ciprofloxacin and norfloxacin ([2]; S. aureus isolates): no significant (>2-fold) decrease in MIC
Ciprofloxacin MIC with EPI ([2]; S. aureus clinical isolate 1): 1 µg/mL
Norfloxacin MIC with EPI ([2]; S. aureus clinical isolate 1): 8 µg/mL
Ciprofloxacin MIC with EPI ([2]; S. aureus clinical isolate 2): 0.5 µg/mL
Norfloxacin MIC with EPI ([2]; S. aureus clinical isolate 2): 1 µg/mL
Ciprofloxacin MIC with EPI ([2]; S. aureus clinical isolate 3): 1 µg/mL
Norfloxacin MIC with EPI ([2]; S. aureus clinical isolate 3): 4 µg/mL
Ciprofloxacin MIC with EPI ([2]; S. aureus clinical isolate 4): 64 µg/mL
Norfloxacin MIC with EPI ([2]; S. aureus clinical isolate 4): 128 µg/mL
Ciprofloxacin MIC with EPI ([2]; S. aureus clinical isolate 5): 1 µg/mL
Norfloxacin MIC with EPI ([2]; S. aureus clinical isolate 5): 2 µg/mL
Ciprofloxacin MIC with EPI ([2]; S. aureus clinical isolate 6): 32 µg/mL
Norfloxacin MIC with EPI ([2]; S. aureus clinical isolate 6): 128 µg/mL
Ciprofloxacin MIC with EPI ([2]; S. aureus clinical isolate 7): 0.5 µg/mL
Norfloxacin MIC with EPI ([2]; S. aureus clinical isolate 7): 2 µg/mL
Ciprofloxacin MIC with EPI ([2]; S. aureus clinical isolate 8): 1 µg/mL
Norfloxacin MIC with EPI ([2]; S. aureus clinical isolate 8): 4 µg/mL
Ciprofloxacin MIC with EPI ([2]; S. aureus clinical isolate 9): 1 µg/mL
Norfloxacin MIC with EPI ([2]; S. aureus clinical isolate 9): 4 µg/mL
Ciprofloxacin MIC with EPI ([2]; S. aureus clinical isolate 10): 16 µg/mL
Norfloxacin MIC with EPI ([2]; S. aureus clinical isolate 10): 64 µg/mL
Ciprofloxacin MIC with EPI ([2]; S. aureus clinical isolate 11): 32 µg/mL
Norfloxacin MIC with EPI ([2]; S. aureus clinical isolate 11): 64 µg/mL
Ciprofloxacin MIC with EPI ([2]; S. aureus clinical isolate 12): 0.25 µg/mL
Norfloxacin MIC with EPI ([2]; S. aureus clinical isolate 12): 1 µg/mL
Ciprofloxacin MIC with EPI ([2]; S. aureus clinical isolate 13): 64 µg/mL
Norfloxacin MIC with EPI ([2]; S. aureus clinical isolate 13): 128 µg/mL
Ciprofloxacin MIC with EPI ([2]; S. aureus clinical isolate 14): 64 µg/mL
Norfloxacin MIC with EPI ([2]; S. aureus clinical isolate 14): 128 µg/mL
Ciprofloxacin MIC with EPI ([2]; S. aureus clinical isolate 15): >64 µg/mL
Norfloxacin MIC with EPI ([2]; S. aureus clinical isolate 15): 256 µg/mL
